Reference: patent publication US5025024A, “Therapeutically active fluoro-substituted compound” (priority 1988, dated 1991)

Columns and labels:
[1] = Bioavailability in the Conscious Dog (AUC method); type: in vivo, Harrier dogs; conditions: plasma, id vs iv, AUCid/AUCiv, read-out: Bioavailability measured by the AUC-method, F %, Dog
Experimental: (§1) Bioavailability is assessed by calculating the quotient between the area under plasma concentration (AUC) curve following intraduodenal (id) administration and intravenous (iv) administration from the rat or the dog. Low, therapeutically relevant doses, were used. This method is scientifically recognized as valid for assessing bioavailability (see for instance: M. Rowland and T. N. Tozer, Clinical Pharmacokinetics, 2nd ed., Lea & Febiger, London 1989, p 42).
(§2) Inhibition of Gastric Acid Secretion and Bioavailability in the Conscious Dog
(§3) Harrier dogs of either sex were used. They were equipped with a duodenal fistula for the administration of test compounds or vehicle and a cannulated ventricular fistula for the collection of gastric secretions.
Blood samples for the analysis of test compound concentration in plasma were taken at intervals up to 3 h after dosing. Plasma was separated and frozen within 30 min after collection. AUC (area under the plasma concentration-time curve), extrapolated to infinite time, was calculated by the linear trapezoidal rule. The systemic bioavailability (F%) after id administration was calculated as 100×(AUCid /AUCiv).

[2] = Chemical Stability at pH 7; type: physicochemical; conditions: pH 7, 37° C., aqueous buffer solution; for half-life: read-out: Chemical Stability at pH 7, half-life (t 1/2) (converted)
Experimental: The chemical stability of various compounds of the invention has been followed kinetically at low concentration at 37° C. in aqueous buffer solution at different pH values. The results in Table 3 show the half life (t1/2) at pH 7, that is the time period after which half the amount of the original compound remains unchanged.

[3] = test system: gastric acid secretion; experiment: Inhibition of Gastric Acid Secretion in the Conscious Male Rat; type: in vivo, male rats of the Sprague-Dawley strain; conditions: 2 h, pentagastrin and carbachol stimulation, second hour after administration
Experimental: (§4) Since the bioavailability model described above is time and labour intensive, and requires a large number of plasma analyses, also a rough screening model, based on relative potencies to inhibit acid secretion, has been used (see for instance: A. Goth, Medical Pharmacology, 7th ed., C. V. Mosby Company, Saint Louis 1974, p 19). Thus, the ratio (called "Bioavailability" in Table 3) between the ED50 at intravenous administration and the ED50 at intraduodenal administration was calculated.
(§5) The potency for inhibition of acid secretion has been measured in the male rat and the dog, both intravenously and intraduodenally. When it comes to relevance of the animal test data for potency of a given compound in man for the present type of compounds, it is believed that potency in man will correspond to a level somewhere between what is measured in the male rat and what is measured in the dog.
(§6) Inhibition of Gastric Acid Secretion in the Conscious Male Rat
(§7) Male rats of the Sprague-Dawley strain were used. They were equipped with cannulated fistulae in the stomach (lumen) and the upper part of the duodenum, for collection of gastric secretions and administration of test substances, respectively. A fourteen days recovery period after surgery was allowed before testing commenced.
(§8) Before secretory tests, the animals were deprived of food but not water for 20 h. The stomach was repeatedly washed through the gastric cannula, and 6 ml of Ringer-Glucose given s.c. Acid secretion was stimulated with a infusion during 3.5 h (1.2 ml/h, s.c.) of pentagastrin and carbachol (20 and 110 nmol/kg h, respectively), during which time gastric secretions were collected in 30-min fractions. Test substances or vehicle were given iv or id at 90 min after starting the stimulation, in a volume of 1 ml/kg. Gastric juice samples were titrated to pH 7.0 with NaOH, 0.1 mol/L, and acid output calculated as the product of titrant volume and concentration. Further calculations were based on group mean responses from 4-5 rats. The acid output during the periods after administration of test substances or vehicle were expressed as fractional responses, setting the acid output in the 30-min period preceding administration to 1.0. Percentage inhibition was calculated from the fractional responses elicited by test compound and vehicle. ED50 -values were obtained from graphical interpolation on log dose-response curves, or estimated from single-dose experiments assuming a similar slope for all dose-response curves. An estimation of the bioavailability was obtained by calculating the ratio ED50 iv/ED50 id. The results reported are based on gastric acid secretion during the second hour after drug/vehicle administration.

[4] = as above; type: in vivo, male rats of the Sprague-Dawley strain; conditions: in vivo, ratio ED50 iv/ED50 id, read-out: "Bioavailability" measured by the Rough Screening Model, Rat ED50 iv/ED50 id
Experimental: as §4, §5, §6, §7, §8

[5] = Bioavailability in the Male Rat (AUC method); type: in vivo, male rats of the Sprague-Dawley strain; conditions: id vs iv, 4 μmol/kg; for bioavailability: blood, 4 umol/kg, read-out: Bioavailability measured by the AUC-method, F %, Rat
Text: The results from tests on two different animal species, rat and dog, vary in regard to measured level of bioavailability for the same compound. We believe that the rat is the more relevant species for bioavailability testing. This is based on our belief that liver metabolism has the most predominant impact upon bioavailability, and that the liver metabolic pattern in man for this type of compounds is quite similar to that of the male rat (more so than of the female rat and the dog). Moreover, test results of bioavailability in the male rat will tend to give a broader "spread" compared with the test results in the dog, and thus the male rat model will give more clear differences in bioavailability between different compounds. Stated in another way, the bioavailability as tested in the male rat can be expected to give a better estimate of the relative differences in man between different test compounds compared with the test results obtained when using the same compounds in the dog.
as §1
Bioavailability in the Male Rat
Male adult rats of the Sprague-Dawley strain were used. One day, prior to the experiments, all rats were prepared by cannulation of the left carotid artery under anaesthesia. The rats used for the intravenous experiments, were also cannulated in the jugular vein. […]
The area under the blood concentration vs time curve, AUC, was determined by the linear trapezoidal rule and extrapolated to infinity by dividing the last determined blood concentration by the elimination rate constant in the terminal phase. The systemic bioavailability (F%) following intraduodenal administration was calculated as [formula]

[6] = test system: gastric acid secretion; experiment: Inhibition of Gastric Acid Secretion in the Conscious Dog; type: in vivo, Harrier dogs; conditions: for ED50: Canis lupus familiaris, dog, histamine-stimulated, acid output 2 h after dosing
Experimental: as §5, §2, §3
Before secretory tests the animals were fasted for about 18 h but water was freely allowed. Gastric acid secretion was stimulated by a 4 h infusion of histamine dihydrochloride (12 ml/h) at a dose producing about 80% of the individual maximal secretory response, and gastric juice collected in consecutive 30-min fractions. Test substance or vehicle was given id or iv 1 h after starting the histamine infusion, in a volume of 0.5 ml/kg body weight. The acidity of the gastric juice samples were determined by titration to pH 7.0, and the acid output calculated. The acid output in the collection periods after administration of test substance or vehicle were expressed as fractional responses, setting the acid output in the fraction preceding administration to 1.0. Percentage inhibition was calculated from fractional responses elicited by test compound and vehicle. ED50 -values were obtained by graphical interpolation on log dose-response curves, or estimated from single-dose experiments under the assumption of the same slope of the dose-response curve for all test compounds. All results reported are based on acid output 2 h after dosing.

[7] = id, read-out: Inhibition of acid secretion, Rat ED50, id
[8] = iv, read-out: Inhibition of acid secretion, Rat ED50, iv

Row | SMILES | bioavailability [1] [%] | Chemical Stability at pH 7, half-life (t 1/2) [2] [h] | half-life [2] [h] | ED50 [3, 7] [µmol/kg] | ED50 [3, 8] [µmol/kg] | bioavailability [4] [%] | bioavailability [5] [%] | ED50 ([6]; id, read-out: Inhibition of acid secretion, Dog ED50, id) [µmol/kg] | ED50 ([6]; iv, read-out: Inhibition of acid secretion, Dog ED50, iv) [µmol/kg] | Bioavailability measured by the AUC-method, F %, Rat [5] [%] | inhibition (of acid secretion), Dog 1 ([6]; Dog 1, 3 μmol/kg, id) [%] | inhibition (of acid secretion), Dog 2 ([6]; Dog 2, 3 μmol/kg, id) [%]
1 | COc1ccnc(C[S+]([O-])c2nc3c(F)cccc3[nH]2)c1 (stereo not drawn) [Example 1, 4-fluoro-2-[[(4-methoxy-2-pyridinyl)methyl]sulfinyl]-1H-benzimidazole] | 95 | 23 | 23 | 2.4 | 0.96 | 40 | 96 | 0.9 | 0.8 | – | – | –
2 | CC(C)Oc1ccnc(C[S+]([O-])c2nc3cc(F)ccc3[nH]2)c1 (stereo not drawn) [Ref., 5-fluoro-2-[[(4-isopropoxy-2-pyridinyl)methyl]-sulfinyl]-1H-benzimidazole] | – | 14 | 14 | 4 | 1.8 | 45 | 31 | – | – | 31 | 95 | 98
